The results in this text go back to patent EP0570197A1, “Hydroxylamine derivatives” (ZENECA LIMITED, priority 1992, dated 1993).

For experiment [1], the target named is T1, 5-LO (Homo sapiens, UniProt P09917).
T1 construct: incubating a test compound with heparinised human blood, prior to challenge with the calcium ionophore A23187; endogenous in cells; host or cells: human whole blood (blood cells), heparinised
T1 sequence (P09917 1-674): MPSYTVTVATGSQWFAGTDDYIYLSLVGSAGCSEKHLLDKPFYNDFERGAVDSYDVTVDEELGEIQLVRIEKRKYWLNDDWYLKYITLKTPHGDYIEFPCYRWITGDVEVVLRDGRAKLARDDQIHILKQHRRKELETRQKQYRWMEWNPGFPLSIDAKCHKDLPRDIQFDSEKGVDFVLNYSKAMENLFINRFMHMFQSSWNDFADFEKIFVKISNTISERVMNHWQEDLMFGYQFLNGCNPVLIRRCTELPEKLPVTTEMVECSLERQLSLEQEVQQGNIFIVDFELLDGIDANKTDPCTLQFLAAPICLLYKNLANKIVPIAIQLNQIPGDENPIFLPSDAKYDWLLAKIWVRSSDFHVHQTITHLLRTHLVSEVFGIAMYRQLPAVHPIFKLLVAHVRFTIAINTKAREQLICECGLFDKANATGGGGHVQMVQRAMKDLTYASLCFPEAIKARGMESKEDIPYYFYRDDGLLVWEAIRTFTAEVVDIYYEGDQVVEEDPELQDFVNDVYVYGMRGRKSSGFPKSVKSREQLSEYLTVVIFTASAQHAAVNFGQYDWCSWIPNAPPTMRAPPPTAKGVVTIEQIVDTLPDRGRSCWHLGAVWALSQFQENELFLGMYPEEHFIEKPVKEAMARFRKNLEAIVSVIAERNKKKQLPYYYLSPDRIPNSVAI
Description: Test a): in vitro heparinised human blood challenged with calcium ionophore A23187, radioimmunoassay of LTB₄. It counts as cell-based. As to conditions: heparinised human blood, A23187 challenge; read-out: IC₅₀ against LTB₄ in test a). The source says: As stated previously, the compounds of the formula I are inhibitors of the enzyme 5-LO. […] J. Pharmacol., 1985, 84, 34P) which involve the use of a protein-LTB₄ conjugate produced using the procedure of Young et alia (Prostaglandins, 1983, 26(4), 605-613). The effects of a test compound on the enzyme cyclooxygenase (which is involved in the alternative metabolic pathway for arachidonic acid and gives rise to prostaglandins, thromboxanes and related metabolites) may be measured at the same time using the specific radioimmunoassay for thromboxane B₂(TxB₂) described by Carey and Forder (see above). This test provides an indication of the effects of a test compound against 5-LO and also cyclooxygenase in the presence of blood cells and proteins. It permits the selectivity of the inhibitory effect on 5-LO or cyclooxygenase to be assessed. • b) An ex vivo assay system, which is a variation of test a) above, involving administration to a group of rats of a test compound (usually orally as the suspension produced when a solution of the test compound in dimethylsulphoxide is added to carboxymethylcellulose), blood collection, heparinisation, challenge with A23187 and radioimmunoassay of LTB₄ and TxB₂. This test provides an indication of the bioavailability of a test compound as an inhibitor of 5-LO or cyclooxygenase. • c) An in vivo system involving measuring the effects of a test compound administered orally against the liberation of LTB₄ induced by zymosan within an air pouch generated within the subcutaneous tissue of the back of male rats. The rats are anaesthetised and air pouches are formed by the injection of sterile air (20 ml). A further injection of air (10 ml) is similarly given after 3 days. At 6 days after the initial air injection the test compound is administered (usually orally as the suspension produced when a solution of the test compound in dimethylsulphoxide is added to hydroxypropylmethylcellulose), followed by the intrapouch injection of zymosan (lml of a 1% suspension in physiological saline). […]

The subject of experiment [2] is 5-LO. The experiment can be described thus: Test c): in vivo zymosan-induced LTB₄ liberation in a subcutaneous air pouch. Further details: species or system male rats. As to conditions: rats killed after 3 hours. The source says:
As stated previously, the compounds of the formula I are inhibitors of the enzyme 5-LO. […] J. Pharmacol., 1985, 84, 34P) which involve the use of a protein-LTB₄ conjugate produced using the procedure of Young et alia (Prostaglandins, 1983, 26(4), 605-613). The effects of a test compound on the enzyme cyclooxygenase (which is involved in the alternative metabolic pathway for arachidonic acid and gives rise to prostaglandins, thromboxanes and related metabolites) may be measured at the same time using the specific radioimmunoassay for thromboxane B₂(TxB₂) described by Carey and Forder (see above). This test provides an indication of the effects of a test compound against 5-LO and also cyclooxygenase in the presence of blood cells and proteins. It permits the selectivity of the inhibitory effect on 5-LO or cyclooxygenase to be assessed. • b) An ex vivo assay system, which is a variation of test a) above, involving administration to a group of rats of a test compound (usually orally as the suspension produced when a solution of the test compound in dimethylsulphoxide is added to carboxymethylcellulose), blood collection, heparinisation, challenge with A23187 and radioimmunoassay of LTB₄ and TxB₂. […]

Structures are written as SMILES.

For `COC1(c2cc(F)cc(Sc3ccc(C(C)ONC(C)=O)cc3)c2)CCOCC1` (stereo not drawn) [Example 2, 4-[5-fluoro-3-(4-methoxytetrahydropyran-4-yl)phenylthio]-α-methylbenzyl acetohydroxamate], the IC50 on 5-LO [1] came out at 0.19 µM. Still for that read-out and setting: the value for `COC1(c2cc(F)cc(Sc3ccc(C(C)ONC(N)=O)cc3)c2)CCOCC1` (stereo not drawn) [Example 4, N-{4-[5-fluoro-3-(4-methoxytetrahydropyran-4-yl)phenylthio]-α-methylbenzyloxy}urea] was 0.31 µM. Regarding `CCN(CC)OC(C)c1ccc(Sc2cc(F)cc(C3(OC)CCOCC3)c2)cc1` (stereo not drawn) [Example 5, N,N-diethyl-O-{4-[5-fluoro-3-(4-methoxytetrahydropyran-4-yl)phenylthio]-α-methylbenzyl}hydroxylamine], the “oral ED₅₀ versus LTB₄ in test c)” value in the experiment with 5-LO [2] was “approximately 1.5 mg/kg”. Also, the IC50 at 5-LO [1] was determined as 0.15 µM.
